Measurements taken from US9504700B2, “Methods and compositions for stimulation and enhancement of regeneration of tissues” (MOUNT DESERT ISLAND BIOLOGICAL LABORATORY, priority 2012, dated 2016).

Experiments:
insulin receptor = settings: mouse, with administration of insulin; cited from earlier work
hepatoma cells = settings: cited from earlier work
[1] = test system: Normal, green monkey kidney cells; assay: Cellular proliferation of normal green monkey kidney cells; assay type: cell-based; settings: 0.1 μg/ml or 1.0 μg/ml, two weeks
Experimental: This study was conducted to determine the effects of MSI-1436 on the cellular proliferation of normal, uninjured mammalian cells.
Normal, green monkey kidney cells were cultured with either control media of PBS or supplemented with 0.1 μg/ml or 1.0 μg/ml of MSI-1436. Growth media with and without MSI-1436 were replaced daily and total cell numbers were determined for each group over a period of 2-weeks.

[2] = test system: caudal fin blastema cells; assay: Proliferation of caudal fin blastema cells (H3P staining); assay type: in vivo, zebrafish; settings: 4 dpa, vs control
Text: The zebrafish caudal fins from the control and MSI-1436 treated animals were extracted at four days post-amputation (4 dpa) and stained with an antibody directed against phosphorylated histone 3 (H3P) as a marker of cell proliferation. […] (Arrowheads highlight subset of H3P positive cells; * corresponds to Student's ttest p-value <0.001; error bars correspond to SEM; n corresponds to 6 fish per group).

zebrafish adult hearts [3] = assay: Rescue of let-7 miRNA depletion defect in heart regeneration (cardiomyocyte proliferation index); assay type: in vivo; settings: 3 dpa
Text: To determine if MSI-1436 is capable of rescuing defects in heart regeneration, we microinjected antisense oligonucleotides to bind and remove activity of the let-7 family of small RNAs (miRNAs). Wildtype adult zebrafish were injured via the partial ventricular resection procedure described above and treated with either 1) control of PBS, 2) MSI-1436, 3) miRNA depletion, and 4) miRNA depletion and MSI-1436. At three days post-amputation (3 dpa), hearts were extracted and stained to detect Mef2+PCNA+cells. Cardiomyocyte proliferation indices were determined as a percent of Mef2+PCNA+cells within the total cardiomyocyte population in each heart. (*=Student's ttest p-value <0.05; error bars=SEM; n=8-12 hearts per group) The inclusion of MSI-1436 enhanced cardiomyocyte proliferation indices by 2-fold when compared to control hearts. Depletion of the let-7 family of miRNAs with antisense nucleotides inhibited cardiomyocyte proliferation index by approximately 45%.

PTP1B = biological target: T1, PTP1B (Homo sapiens, UniProt P18031); settings: in vitro enzyme assay; cited from earlier work
T1 sequence (P18031 1-435): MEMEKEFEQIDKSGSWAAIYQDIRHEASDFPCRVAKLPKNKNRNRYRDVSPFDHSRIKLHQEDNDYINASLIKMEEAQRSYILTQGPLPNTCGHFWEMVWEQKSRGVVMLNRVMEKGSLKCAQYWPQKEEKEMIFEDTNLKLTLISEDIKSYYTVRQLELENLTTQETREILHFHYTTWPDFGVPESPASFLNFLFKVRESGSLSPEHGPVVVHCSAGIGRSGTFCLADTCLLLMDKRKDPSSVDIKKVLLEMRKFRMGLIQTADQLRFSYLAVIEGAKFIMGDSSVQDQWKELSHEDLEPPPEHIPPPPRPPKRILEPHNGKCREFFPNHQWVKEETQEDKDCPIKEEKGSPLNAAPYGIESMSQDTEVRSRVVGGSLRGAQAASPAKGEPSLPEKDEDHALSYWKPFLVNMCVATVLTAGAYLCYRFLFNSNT

HIV = settings: tissue culture; cited from earlier work
zebrafish adult hearts [4] = assay: Heart regeneration after partial ventricular resection (cardiomyocyte proliferation index, Mef2+PCNA+); assay type: in vivo; settings: 3 dpa; 0.125 mg/kg daily ip
Experimental: The pharmacological effect of aminosterol MSI-1436 administration on the regeneration of zebrafish adult hearts was tested using the same experimental paradigm described under the first study of example 1.
Adult zebrafish of 6-8 months old, were subjected to partial ventricular resection procedures followed by daily treatments with intraperitoneal microinjections of PBS (control) or squalamine or MSI-1436 at concentrations of 0.125 mg/kg. The ventricular resection procedures removed ˜20% of the ventricular apex of each heart and challenged each animal to regenerate new heart tissue. At three days post-amputation (3 dpa), hearts were extracted, fixed, cyrosectioned and stained with antibodies directed against Mef2 and PCNA. Cardiomyocyte proliferation indices were determined for each group by representing Mef2+PCNA+cells as a percent of total Mef2+cells within each heart. (*=Student's ttest p-value <0.05; error bars=SEM; n=4 per group).

[5] = test system: caudal fin of adult zebrafish; assay: Caudal fin regeneration after amputation in adult zebrafish; assay type: in vivo
Experimental: The purpose of this example was to evaluate the pharmacological effect of aminosterol MSI-1436 administration on the regeneration of the caudal or tail fins of zebrafish. Wildtype adult zebrafish were treated with MSI-1436 or squalamine or a control of phosphate buffered saline solution (PBS) over a four-day period via daily intraperitoneal microinjections. The adult zebrafish were bred and housed in the Yin laboratory at Mount Desert Island Biological Laboratory. The microinjections of PBS, squalamine and MSI-1436 were performed for the duration of the experiments at concentrations of 0.125 mg/kg which corresponds to 50 ng/300 mg body weight which translates to 5-200 mg per dose in humans. On average, a 5 ul volume of 10 ug/ml solution was delivered into each animal with a custom made 10 ul glass syringe (Hamilton part #80008).
The tail or caudal fins were amputated following the second day of intraperitoneal microinjections. These amputations were accomplished using a razor blade to remove approximately 50% of the caudal fins each in a manner perpendicular to the direction of bony ray growth. The zebrafish were maintained at standard conditions of 28° C. at all times during the experiments. At 4 days post-amputation (4 dpa) through 14 dpa, caudal fins were imaged with an Olympus MVX10 stereomicroscope and the length of regenerated tissue from the amputation plane was quantified using Adobe Photoshop.
(The dashed lines correspond to the amputation planes; the scale bar is 1 mm; * corresponds to the Student's ttest p-value <0.01; error bars correspond to SEM; n corresponds to 8-10 fish per group.) MSI-1436 stimulated appendage regeneration 2-fold four days after amputation (4 dpa), as shown in FIG. 2. […] In other words, the rate of regeneration was […] for those animals receiving MSI-1436 than for those receiving either phosphate buffered saline (PBS) or squalamine. Each of the experiments was conducted with at least 6 animals per group. […] FIG. 1 reflects the results of all four experiments.
Wildtype adult zebrafish were subjected to caudal fin amputation and treated daily with either control PBS or MSI-1436 as described above in the context of FIG. 1 for 14 consecutive days during regeneration. (Arrowhead=amputation plane; n=4-6 per group).

Compound: CC(C)[C@@H](CC[C@@H](C)[C@H]1CC[C@H]2[C@@H]3[C@H](O)C[C@H]4C[C@@H](NCCCNCCCCNCCCN)CC[C@]4(C)[C@H]3CC[C@]12C)OS(=O)(=O)O [MSI-1436]
- recovery of phosphorylated insulin receptor from the hypothalamus (insulin receptor): increase in the recovery of phosphorylated insulin receptor from the hypothalamus
- phosphorylation of the insulin receptor (hepatoma cells): increase the level of phosphorylation of the insulin receptor
- cellular proliferation plots ([1]; media replaced daily): normal growth curves
- overgrowth or hyperproliferation [1]: did not promote overgrowth or hyperproliferation
- increase in cellular proliferation of blastema cells (H3P positive) [2]: 2 fold
- enhancement of cardiomyocyte proliferation indices vs control hearts (zebrafish adult hearts [3]): 2 fold
- cardiomyocyte proliferation index in animals with miRNA depletion (zebrafish adult hearts [3]; miRNA depletion and MSI-1436): restored to wildtype control levels
- PTP1B activity (PTP1B): inhibit the activity of PTP1B
- antiviral activity against HIV (HIV): exhibits antiviral activity against HIV
- greater rate of heart regeneration, as quantified by cardiomyocyte proliferation indices, vs PBS or squalamine (zebrafish adult hearts [4]): 2-3 fold
- anatomy of restored tail ([5]; 0.125 mg/kg daily ip): anatomically normal
- rate of regeneration greater than PBS or squalamine ([5]; 0.125 mg/kg daily ip): 200%
- overgrowth of regenerated tissue ([5]; 14 consecutive days of daily microinjections): did not display any overgrowth
- amount of regenerated tissue vs control ([5]; 14 days post-amputation (14 dpa)): same amount of regenerated tissue
- stimulation of appendage regeneration ([5]; four days after amputation (4 dpa), 0.125 mg/kg daily ip): 2 fold
